Source: the OligoGym collection
These antisense oligonucleotides have a phosphorothioate backbone; sugars and methylation of C are not fully specified.
Further: test concentration or dose not given here.

These sequences were tested against BIRC3. Settings: ASO.
TTTCTCTCTCCTCTTCCC was tested, and the remaining target (mRNA or protein) (fraction of control) was 0.9.
Work on TTTGACATCATCACTGTT yielded a remaining target (mRNA or protein) (fraction of control) of no less than 1.

What follows are sequences tested against SMAD4. Settings: ASO.
In the case of AAAGCAGAAGAAAAGTGA, the remaining target (mRNA or protein) (fraction of control) is reported as no less than 1.
AACACCAATACTCAGGAG gave a remaining target (mRNA or protein) (fraction of control) of no less than 1.
AACATCACCTTCACCTTT was tested, and the remaining target (mRNA or protein) (fraction of control) was 0.45.
In the case of AATCCTTTCCGACCAGCC, the remaining target (mRNA or protein) (fraction of control) is reported as 0.26.
With ACAGAAGAATACAACTAC the remaining target (mRNA or protein) (fraction of control) was no less than 1.
With ACCTTTCCCTATGAATGA the remaining target (mRNA or protein) (fraction of control) was 0.65.
Sequence ACGATTACTTGGTGGATG has a remaining target (mRNA or protein) (fraction of control) of 0.88.
In the case of ACTCTCTCCACCTTGTCT, the remaining target (mRNA or protein) (fraction of control) is reported as 0.57.
Sequence AGACACTATCACATTTTA has a remaining target (mRNA or protein) (fraction of control) of no less than 1.
For ATCCTTTGGAAACAGTGA, the remaining target (mRNA or protein) (fraction of control) was no less than 1.
Work on CAATGGCTTCTGTCCTGT yielded a remaining target (mRNA or protein) (fraction of control) of no less than 1.
For CAGGTGGTAGTGCTGTTA, the remaining target (mRNA or protein) (fraction of control) was no less than 1.
With CAGTAAATCCATTCTGCT the remaining target (mRNA or protein) (fraction of control) was no less than 1.
For CAGTAACAATAGGGCAGC, the remaining target (mRNA or protein) (fraction of control) was no less than 1.
CATACATAACAGGTGAAG gave a remaining target (mRNA or protein) (fraction of control) of 0.91.
CATACTTGATGGAGCATT gave a remaining target (mRNA or protein) (fraction of control) of no less than 1.
Work on CATAGGCGGGTGGTGCTG yielded a remaining target (mRNA or protein) (fraction of control) of no less than 1.
CCTTCACTATGGCTGCCC showed a remaining target (mRNA or protein) (fraction of control) of 0.3.
With CTGTATGGTAACACATTT the remaining target (mRNA or protein) (fraction of control) was no less than 1.
Sequence GAATGAAGGAAAAGAAAT has a remaining target (mRNA or protein) (fraction of control) of no less than 1.
GAATTTCAATCCAGCAAG showed a remaining target (mRNA or protein) (fraction of control) of no less than 1.
Sequence GACAGGCATCATTACTTG has a remaining target (mRNA or protein) (fraction of control) of no less than 1.
GATGACACTGACGCAAAT showed a remaining target (mRNA or protein) (fraction of control) of no less than 1.
Sequence GGCAGCAAACACATTTTC has a remaining target (mRNA or protein) (fraction of control) of no less than 1.
Work on GTAGTCCACCATCCTGAT yielded a remaining target (mRNA or protein) (fraction of control) of no less than 1.
GTGGACAACGATGGCTGT gave a remaining target (mRNA or protein) (fraction of control) of no less than 1.
With GTGTTTCTTTGATGCTCT the remaining target (mRNA or protein) (fraction of control) was no less than 1.
GTTTCTCCTAATCTTCAA showed a remaining target (mRNA or protein) (fraction of control) of no less than 1.
For TAAAATCAGCAATACTGG, the remaining target (mRNA or protein) (fraction of control) was 0.79.
Work on TACAACTCGTTCGTAGTG yielded a remaining target (mRNA or protein) (fraction of control) of no less than 1.
TAGGTAGAGTGACGCTGC gave a remaining target (mRNA or protein) (fraction of control) of no less than 1.
TCTGTCTAAGTAGTAACT gave a remaining target (mRNA or protein) (fraction of control) of no less than 1.
For TGAAGCCTCCCATCCAAT, the remaining target (mRNA or protein) (fraction of control) was 0.9.
TGACAAGTTCTGAAGAGG gave a remaining target (mRNA or protein) (fraction of control) of no less than 1.
For TGACGCTGCTTTTAGTGT, the remaining target (mRNA or protein) (fraction of control) was no less than 1.
Work on TGGATGAAAGATTACAAT yielded a remaining target (mRNA or protein) (fraction of control) of no less than 1.
With TTCACAAAACTCATCCTG the remaining target (mRNA or protein) (fraction of control) was no less than 1.
TTGGGAAAGTTGGCAGTG was tested, and the remaining target (mRNA or protein) (fraction of control) was no less than 1.
Work on TTTAAGGGATTCTCAATA yielded a remaining target (mRNA or protein) (fraction of control) of no less than 1.
For TTTGATGCTCTGTCTTGG, the remaining target (mRNA or protein) (fraction of control) was no less than 1.

Each sequence was assayed against FADD. Settings: ASO.
AAGATACGAGATCCCGCT showed a remaining target (mRNA or protein) (fraction of control) of 0.64.
AAGGAAGATTTAGAGAGT was tested, and the remaining target (mRNA or protein) (fraction of control) was 0.72.
ACACCGAGTGCAGCAGCA showed a remaining target (mRNA or protein) (fraction of control) of 0.82.
In the case of ACCAGGAACGGGTCCATG, the remaining target (mRNA or protein) (fraction of control) is reported as 0.92.
With AGTTGTAAAGCTGTGTTT the remaining target (mRNA or protein) (fraction of control) was 0.57.
ATGGGCTCTGGTGAAGGA showed a remaining target (mRNA or protein) (fraction of control) of no less than 1.
CACACAGGTCTTCTTCCC gave a remaining target (mRNA or protein) (fraction of control) of no less than 1.
In the case of CACCACAGCACCCCGCCT, the remaining target (mRNA or protein) (fraction of control) is reported as 0.95.
With CATGGAGAAGAGGTCTAG the remaining target (mRNA or protein) (fraction of control) was 0.71.
For CCAGCGGCCCAAGGATTC, the remaining target (mRNA or protein) (fraction of control) was no less than 1.
CCATCAGGACGCTTCGGA showed a remaining target (mRNA or protein) (fraction of control) of 0.93.
CCCCACATTATCACATAT gave a remaining target (mRNA or protein) (fraction of control) of 0.9.
With CCCCGCCTCGAAGTCGTC the remaining target (mRNA or protein) (fraction of control) was 0.82.
CCGGTGGCCTCCAAGGAA was tested, and the remaining target (mRNA or protein) (fraction of control) was no less than 1.
With CCTGCTGGGTCTTCACAG the remaining target (mRNA or protein) (fraction of control) was no less than 1.
Work on CGCAGCTTGAGTTCAGAA yielded a remaining target (mRNA or protein) (fraction of control) of 0.65.
Work on CGCGCCCGAGGCATAGGA yielded a remaining target (mRNA or protein) (fraction of control) of 0.75.
In the case of CTCCAGCTTGCGCTTGAC, the remaining target (mRNA or protein) (fraction of control) is reported as 0.78.
CTCCAGGTCGTTCTGCTC showed a remaining target (mRNA or protein) (fraction of control) of 0.65.
Work on CTCCCGCACACGCTCTGT yielded a remaining target (mRNA or protein) (fraction of control) of no less than 1.
CTCCGGTGCCTGATTCAC gave a remaining target (mRNA or protein) (fraction of control) of 0.94.
Work on CTGTGTTCTTCCAGATTC yielded a remaining target (mRNA or protein) (fraction of control) of no less than 1.
For CTTCGCTCCGATTCCTGG, the remaining target (mRNA or protein) (fraction of control) was no less than 1.
In the case of GAACCAAAGTCCAGGCTG, the remaining target (mRNA or protein) (fraction of control) is reported as no less than 1.
GACAGGCTGGACGACACC was tested, and the remaining target (mRNA or protein) (fraction of control) was 0.62.
Work on GATGCTGTCGATCTTGGT yielded a remaining target (mRNA or protein) (fraction of control) of 0.91.
Sequence GCCAGCCTTCTCCAATCT has a remaining target (mRNA or protein) (fraction of control) of 0.62.
GCCCCTACTTAGCAGTCT showed a remaining target (mRNA or protein) (fraction of control) of 0.65.
